PubChem BioAssay AID1918995 (Molecular Pharmacology Branch, DTP, NCI, 2023)

Tested on: 324938-238-R-J1-PDC complex spheroid growth, % test/control
Test: Anticancer human tumor 324938-238-R-J1-PDC patient-derived bladder carcinoma cell line growth inhibition [AhR]
Conditions: for IC50: curve of first compound; for viability, T/C: stronger effect = lower value
From the text: Multicellular complex tumor spheroid response to aryl hydrocarbon receptor antagonists in combination with a variety of drugs and investigational agents in selected tumor cell lines
The current study was undertaken to assess response to aryl hydrocarbon receptor antagonists in combination with standard-of-care drugs and investigational agents in solid tumor complex spheroid models. Complex spheroids include a stromal component modeled by human endothelial cells (HUVEC) and fibroblasts modeled by human mesenchymal stem cells (MSCs). The concentration ranges selected for each drug and investigational agent were based upon clinically achievable concentrations if the clinical Cmax of the agent was known.
Compounds. The drugs and investigational agents: BAY 2416964 (NSC825713), GNF351 (NSC835774), CH-223191 (NSC835775), CPI-455 (NSC825282), aza-TdCyd (NSC777586), decitabine (NSC127716), belinostat (NSC758774), entinostat (NSC756642), pevonedistat (NSC761192), tazemetostat (NSC777109), talazoparib (NSC765396), olaparib (NSC753686), selinexor (NSC780203), nedisertib (M3814, NSC802822), bortezomib (NSC756655), venetoclax (NSC766270), doxorubicin (NSC123127), elimusertib (BAY189344, NSC800525), ceralasertib (AZD6738, NSC777638), TAK-243 (NSC785004), alisertib (NSC759677), etoposide (NSC141540), topotecan (NSC609699), eribulin (NSC707389), gemcitabine (NSC613327), carboplatin (NSC241240), cisplatin (NSC119875), and SN-38 (NSC673596) were obtained from the National Cancer Institute (NCI) Developmental Therapeutics Program Chemical Repository (32). The FDA-approved anticancer drug set is available from the Developmental Therapeutics Program at https://dtp.cancer.gov/organization/dscb/obtaining/available plates.htm. […] The stock solutions were prepared in dimethyl sulfoxide (DMSO, Sigma-Aldrich, St. Louis, MO, cat. D2650), except for the platinum compounds which were prepared in saline (Quality Biological, Gaithersburg, MD, cat. 114-055-101), at 800-fold the tested concentration and stored at -70 degrees C prior to their use. All drugs and investigational agents were tested over a range starting from a high concentration at or near the clinical Cmax and decreasing in half-log increments. If the clinical Cmax for an agent had not been determined, the highest concentration tested was 10 microM (Table 1).
Cell Culture. All cells were maintained in an incubator at 37 degrees C and 5% CO2 with 95% humidity. The PDC lines were cultured according to standard operating procedures established by the NCI PDMR (https://pdmr.cancer.gov). Briefly, all PDCs were thawed and cultured in Matrigel-coated flasks prepared with a working solution of 1X Ham's F-12 nutrient mix, without supplementation (Invitrogen, Waltham, MA, cat. 11765054), 100 U/mL penicillin-streptomycin (Invitrogen, cat. 15140122), and 2.5% Matrigel (Corning Inc., Corning, NY, cat. 354248) for the first three passages. All PDCs were cultured in complete DMEM/F-12 media containing advanced DMEM/F-12 (Invitrogen, cat. 12634028), 4.9% defined fetal bovine serum, heat inactivated (HyClone Laboratories Inc., Logan, UT, cat. SH30070.03HI), 389 ng/mL hydrocortisone (Sigma-Aldrich, cat. H4001), 9.7 ng/mL human EGF recombinant protein (Invitrogen, cat. PHG0313), 23.4 microg/mL adenine (Sigma-Aldrich, cat. A2786), 97.3 U/mL penicillin-streptomycin (Invitrogen, cat. 15140122), 1.9 mM L-glutamine (Invitrogen, cat. 25030081), and 9.7 microM Y-27632 dihydrochloride (Tocris Bioscience, Bristol, United Kingdom, cat. 1254). The PDCs were cultured in complete DMEM/F12 media without 10 microM Y-27632 dihydrochloride for at least two passages prior to the screen. The established cell lines NCI-H1341 and […] were cultured in DMEM/F-12, HEPES (Invitrogen, cat. 11330032), 5% defined fetal bovine serum (HyClone Laboratories Inc., cat. SH30070.03), ITS premix universal culture supplement [insulin (5 microg/mL), transferrin (5 microg/mL), and selenious acid (5 ng/mL)] […]

[1] = second compound 0.1 µM, first compound 0.0316 µM
[2] = second compound 0.1 µM, first compound 0.1 µM
[3] = second compound 0.316 µM, first compound 0.0316 µM
[4] = second compound 0.316 µM, first compound 0.1 µM
[5] = second compound 1 µM, first compound 0.0316 µM
[6] = second compound 1 µM, first compound 0.1 µM
[7] = second compound 3.16 µM, first compound 0.0316 µM
[8] = second compound 3.16 µM, first compound 0.1 µM
[9] = second compound 10 µM, first compound 0.0316 µM
[10] = second compound 10 µM, first compound 0.1 µM
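Also: spheroids exposed to agents for seven days before viability read.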

For `CC[C@@]1(O)C(=O)OCc2c1cc1n(c2=O)Cc2cc3c(CN(C)C)c(O)ccc3nc2-1` + CC(CO)NC(=O)c1cc(-c2ccc(Cl)cc2)nn(-c2cnn(C)c2)c1=O, the IC50 (second compound 0.1 µM) was 27.7 nM, the IC50 (second compound 0.316 µM) was 20.4 nM and the IC50 (second compound 1 µM) was 21.9 nM. For the same molecule, the IC50 (second compound 3.16 µM) was 14.2 nM, the IC50 (second compound 10 µM) was 16.8 nM and the viability, T/C (second compound 0.1 µM, first compound 0.000316 µM) was 106%. For the same molecule, the viability, T/C (second compound 0.1 µM, first compound 0.001 µM) was 103%, the viability, T/C (second compound 0.1 µM, first compound 0.00316 µM) was 89.7% and the viability, T/C (second compound 0.1 µM, first compound 0.01 µM) was 80.2%. The viability, T/C [1] was 44.6%, the viability, T/C [2] was 16.7% and the viability, T/C (second compound 0.316 µM, first compound 0.000316 µM) was 102%. It also gave a viability, T/C (second compound 0.316 µM, first compound 0.001 µM) of 106%, a viability, T/C (second compound 0.316 µM, first compound 0.00316 µM) of 100% and a viability, T/C (second compound 0.316 µM, first compound 0.01 µM) of 72.6%. The viability, T/C [3] was 36.5%, the viability, T/C [4] was 18.1% and the viability, T/C (second compound 1 µM, first compound 0.000316 µM) was 87.4%. The viability, T/C (second compound 1 µM, first compound 0.001 µM) was 97.9%, the viability, T/C (second compound 1 µM, first compound 0.00316 µM) was 89.6% and the viability, T/C (second compound 1 µM, first compound 0.01 µM) was 73%. For the same molecule, the viability, T/C [5] was 39.4%, the viability, T/C [6] was 17.6% and the viability, T/C (second compound 3.16 µM, first compound 0.000316 µM) was 74%. It also gave a viability, T/C (second compound 3.16 µM, first compound 0.001 µM) of 85.4%, a viability, T/C (second compound 3.16 µM, first compound 0.00316 µM) of 76.3% and a viability, T/C (second compound 3.16 µM, first compound 0.01 µM) of 57.2%. The viability, T/C [7] was 32.4%, the viability, T/C [8] was 21% and the viability, T/C (second compound 10 µM, first compound 0.000316 µM) was 69.4%. For the same molecule, the viability, T/C (second compound 10 µM, first compound 0.001 µM) was 69.7%, the viability, T/C (second compound 10 µM, first compound 0.00316 µM) was 61.4% and the viability, T/C (second compound 10 µM, first compound 0.01 µM) was 59.6%. For the same molecule, the viability, T/C [9] was 40.4% and the viability, T/C [10] was 22.6%.

`Nc1ccn(C2OC(CO)C(O)C2(F)F)c(=O)n1` (stereo not given) + CC(CO)NC(=O)c1cc(-c2ccc(Cl)cc2)nn(-c2cnn(C)c2)c1=O was tested, and the IC50 (second compound 0.1 µM) was under 31.6 nM, the IC50 (second compound 0.316 µM) was under 31.6 nM and the IC50 (second compound 1 µM) was under 31.6 nM. The IC50 (second compound 3.16 µM) was under 31.6 nM, the IC50 (second compound 10 µM) was 38.6 nM and the viability, T/C [1] was 36.8%. It also gave a viability, T/C [2] of 24.1%, a viability, T/C (second compound 0.1 µM, first compound 0.316 µM) of 18.3% and a viability, T/C (second compound 0.1 µM, first compound 1 µM) of 17.9%. The viability, T/C (second compound 0.1 µM, first compound 3.16 µM) was 15.3%, the viability, T/C (second compound 0.1 µM, first compound 10 µM) was 12.3% and the viability, T/C [3] was 34.3%. It also gave a viability, T/C [4] of 27.3%, a viability, T/C (second compound 0.316 µM, first compound 0.316 µM) of 21.7% and a viability, T/C (second compound 0.316 µM, first compound 1 µM) of 18.6%. It also gave a viability, T/C (second compound 0.316 µM, first compound 3.16 µM) of 16%, a viability, T/C (second compound 0.316 µM, first compound 10 µM) of 11.6% and a viability, T/C [5] of 39%. For the same molecule, the viability, T/C [6] was 30.7%, the viability, T/C (second compound 1 µM, first compound 0.316 µM) was 20.2% and the viability, T/C (second compound 1 µM, first compound 1 µM) was 19.9%. The viability, T/C (second compound 1 µM, first compound 3.16 µM) was 17.6%, the viability, T/C (second compound 1 µM, first compound 10 µM) was 12.9% and the viability, T/C [7] was 43.2%. It also gave a viability, T/C [8] of 38.6%, a viability, T/C (second compound 3.16 µM, first compound 0.316 µM) of 19.3% and a viability, T/C (second compound 3.16 µM, first compound 1 µM) of 19.8%. It also gave a viability, T/C (second compound 3.16 µM, first compound 3.16 µM) of 18.9%, a viability, T/C (second compound 3.16 µM, first compound 10 µM) of 11.8% and a viability, T/C [9] of 51.3%. It also gave a viability, T/C [10] of 43.1%, a viability, T/C (second compound 10 µM, first compound 0.316 µM) of 24.9% and a viability, T/C (second compound 10 µM, first compound 1 µM) of 21.4%. For the same molecule, the viability, T/C (second compound 10 µM, first compound 3.16 µM) was 19.1% and the viability, T/C (second compound 10 µM, first compound 10 µM) was 14.2%.
